Test results taken from US20160339036A1, “Compound with Anti-Cancer Properties” (Velgene 3 Limited, priority 2013, published 2016).

Legend:
[1] = test system: tumour cell lines of Table 1 (CCRF-CEM, K562, MCF7, PANC1, B16, HT168M1, HCT116, PC3); experiment: Proliferation assay (MTT) on tumour cell lines; assay type: cell-based, human; mouse (B16); conditions: 0.6, 2 and 6 μM, evaluated 24, 48 and 72 hours after treatment, One-Way ANOVA Post Hoc Scheffe Test, FIG. 4
Procedure: The first step was to examine the effect of T0504-7238 on the growth of tumour cells of the cell lines listed below in Table I. Our aim was to select the most therapy-sensitive cell lines as a preparation for the in vivo experiments.
Tumour cells were maintained in RPMI 1640 medium supplemented with 10% FBS (Sigma) and 1% penicillin/streptomycin solution (5,000 units penicillin and 5 mg streptomycin/ml) (Sigma) at 37° C. in a 5% CO2 atmosphere and used at confluence or at minimum 10^6 cells/ml density.
Single cell suspensions of different cell lines (Table 1) were put into 96-well microtiter plates for setting up 18-24 parallel samples per experimental group at 4×10^3 cell/well. The appropriate amount of T0504-7238 was suspended in a 3:1 DMSO: Solutol solution, which was then further diluted to the final concentration without the risk of precipitation. […]
Within each group samples were evaluated 24, 48 and 72 hours after treatment. […] After discarding of the culture medium plates were dried at room temperature, formazan crystals dissolved in dimethyl sulfoxide (100 μl/well) and the absorbance (OD) was measured at 570 nm using a microplate reader (Bio-Rad 550).
(§1) The results of our measurements were evaluated using One-Way ANOVA Post Hoc Scheffe Test.

[2] = test system: PC3 human prostate carcinoma; experiment: PC3 human prostate tumour, implantation into prostate of CB17/scid mice; assay type: in vivo, CB17/scid male mice; conditions: 2 mg/kg i.p. once every second day from 13th post-implantation day, evaluated on 31st day
From the text: (§2) Both the environment of the experimental animals and the execution of the actual experiments followed the up to date legislation and ethical regulations of Hungary. […] The experimental animals were derived from the The Jackson Laboratory (610 Main Street Bar Harbor, Me. 04609, USA). All personnel involved with the in vivo experiments are qualified to perform the described experiments.
The abdominal wall of CB17/scid male mice was opened at the level of the prostate under Nembutal anaesthesia (75 mg/kg). A single cell suspension (2.15×10^5 cell/20 μl) of the PC3 human prostate carcinoma cell line was implanted into the prostate using micro syringe (Hamilton). The abdominal was closed with a single layer of surgical thread (3/0 Vicryl), the skin was closed with outwards turning wound edges using surgical clips (Michel Wound Clips, 7.5 mm). After the wound healing completed, the animals were randomised, divided into two groups (9 treated, 9 control) and labelled with individual ear-markings on the 13th post-implantation day. From that day onwards, the treated group was intraperitoneally (i.p) treated with T0504-7238 (2 mg/kg-3:1 DMSO:Solutol solution) once every second day. […] The animals were weighed weekly and individual changes were recorded using the ear-marking system. […]
as §1

HT168M1 human melanoma = experiment: HT168M1 human melanoma, subcutaneous implantation in CB17/scid mice; assay type: in vivo, CB17/scid female mice
From the text: as §2
2,5×10^5 human melanoma (HT168M1) cells, from the in vitro cell line, were subcutaneously (s.c.) implanted into the dorsal region of adult CB17/scid female mice with congenital immunodeficiency under diethyl ether narcosis. The animals were randomised, divided into two groups (11 treated, 11 control) and labelled with individual ear-markings on the 10th post-implantation day. From that day onwards, the treated group was intraperitoneally (i.p) treated with T0504-7238 (2 mg/kg-3:1 DMSO:Solutol solution) once every second day. The control group was also treated with identical frequency to the treatment group i.p. injecting appropriately diluted 3:1 DMSO:Solutol solution. The animals were weighed weekly and individual changes were recorded using the ear-marking system. The tumour diameter was also individually recorded from the earliest palpable stage using a pair of compasses (caliper). Tumour volume was estimated usin the π/6×a×b^2 formula, where ‘a’ is the longer and ‘b’ is the shorter diameter. The experiment was terminated on the 41st post-implantation day—the animals were sacrificed using Nembutal. The evaluation was based on the weight of the primary tumour.
as §1

For `O=C1C(Cl)=C(N2CCOCC2)C(=O)c2ccc(S(=O)(=O)N3CCOCC3)cc21` [T0504-7238], the “growth of all tumour cell lines” value [1] was “dose-dependently, significantly decreased the growth”, the “body weight, treated vs control animals at the time of evaluation” value ([2]; FIG. 6) was “no significant difference” and the “average weight of the primary tumour, treated vs control group” value ([2]; FIG. 7) was “lower in the treated group”. The “detectable tumor entirely necrotic, share of cases in treated group” value (HT168M1 human melanoma; 2 mg/kg i.p. once every second day from 10th post-implantation day, evaluated on 41st day) was 20%, the “weight of the tumor, treated vs control group” value (HT168M1 human melanoma; 2 mg/kg i.p. once every second day from 10th post-implantation day, evaluated on 41st day, FIG. 5) was “significantly lower (p=0.026)” and the “average body weight of treated animals vs controls at the time of evaluation” value (HT168M1 human melanoma; 2 mg/kg i.p. once every second day, 41st post-implantation day) was “this difference was not significant”.
